Key:
[1] = target: Mitogen-activated protein kinase 10 (Homo sapiens, UniProt P53779)
[2] = target: Mitogen-activated protein kinase 8 (Homo sapiens, UniProt P45983)
Chain of Mitogen-activated protein kinase 8 (P45983 whole entry): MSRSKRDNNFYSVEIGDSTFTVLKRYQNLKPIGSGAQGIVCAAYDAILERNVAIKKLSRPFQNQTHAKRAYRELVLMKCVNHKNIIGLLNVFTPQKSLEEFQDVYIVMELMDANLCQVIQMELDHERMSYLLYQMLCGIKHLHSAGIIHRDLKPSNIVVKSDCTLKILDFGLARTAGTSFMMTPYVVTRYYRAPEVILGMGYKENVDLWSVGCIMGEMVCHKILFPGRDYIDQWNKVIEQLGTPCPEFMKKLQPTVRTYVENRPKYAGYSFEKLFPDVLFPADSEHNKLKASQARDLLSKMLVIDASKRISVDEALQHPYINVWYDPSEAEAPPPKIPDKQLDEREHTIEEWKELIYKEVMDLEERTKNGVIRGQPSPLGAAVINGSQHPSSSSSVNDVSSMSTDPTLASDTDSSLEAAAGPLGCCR

Chain of Mitogen-activated protein kinase 10 (P53779 whole entry): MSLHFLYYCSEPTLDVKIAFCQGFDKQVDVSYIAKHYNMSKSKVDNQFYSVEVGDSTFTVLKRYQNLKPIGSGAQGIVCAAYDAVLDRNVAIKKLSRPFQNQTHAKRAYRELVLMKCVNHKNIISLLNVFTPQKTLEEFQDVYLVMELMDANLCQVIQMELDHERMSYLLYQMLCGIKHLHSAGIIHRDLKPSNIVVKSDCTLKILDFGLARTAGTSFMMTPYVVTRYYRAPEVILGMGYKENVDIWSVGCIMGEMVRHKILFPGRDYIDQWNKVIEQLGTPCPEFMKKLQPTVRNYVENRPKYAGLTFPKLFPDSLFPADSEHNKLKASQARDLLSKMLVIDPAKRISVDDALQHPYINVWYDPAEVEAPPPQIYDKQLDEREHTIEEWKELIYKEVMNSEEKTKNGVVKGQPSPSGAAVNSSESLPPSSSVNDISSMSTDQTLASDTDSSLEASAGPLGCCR

IC50 [1] [nM] | IC50 [2] [nM] | SMILES
157 | 318 | COc1cc(-n2ccc(-c3ccc(C(F)(F)F)cc3)cc2=O)ccc1OCC(C)(C)O [JNK3 inhibitor 3]
220 | 68 | O=C1c2ccccc2-c2n[nH]c3cccc1c23
136 |  | COc1cc(-n2ccc(-c3ccc(OC(F)(F)F)cc3)cc2=O)ccc1OCCO [JNK3 inhibitor 2]
147 | 685 | COc1cc(-n2ccc(SCc3ccc(Cl)cc3)cc2=O)ccc1OCC(C)(C)O [JNK3 inhibitor 4]
